Laboratory results from ChEMBL document CHEMBL1201862, “PubChem BioAssay data set” (2004).
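Cells were grown in 96-well plates and exposed to each compound for 48 hours at five concentrations; endpoints were interpolated linearly between bracketing concentrations, or set to the highest concentration if not reached. GI50 marks 50% less growth.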 Activity calls are given as the source filed them. No stated cut-off is given here; in the data, active = GI50 up to about 1.1 µM and inactive = higher.

Columns and labels:
Experiment in all cases: DTP human tumour cell line panel, 48 h
ACHN = tested on: ACHN
CAKI-1 = tested on: CAKI-1
HCT-15 = tested on: HCT-15
HL-60 = tested on: HL-60
HOP-92 = tested on: HOP-92
HT-29 = tested on: HT-29
KM12 = tested on: KM12
MOLT-4 = tested on: MOLT-4
Malme-3M = tested on: Malme-3M
NCI-H460 = tested on: NCI-H460
SF-539 = tested on: SF-539
SK-OV-3 = tested on: SK-OV-3
SN12C = tested on: SN12C
SNB-75 = tested on: SNB-75
SR = tested on: SR
U-251 = tested on: U-251
UACC-257 = tested on: UACC-257
Hs-578T = tested on: Hs-578T
MDA-MB-231 = tested on: MDA-MB-231
MCF7 = tested on: MCF7

Row | SMILES | GI50 (ACHN) | GI50 (CAKI-1) | GI50 (HCT-15) [µM] | GI50 (HL-60) | GI50 (HOP-92) | GI50 (HT-29) | GI50 (KM12) | GI50 (MOLT-4) | GI50 (Malme-3M) | GI50 (NCI-H460) | GI50 (SF-539) | GI50 (SK-OV-3) | GI50 (SN12C) | GI50 (SNB-75) | GI50 (SR) | GI50 (U-251) | GI50 (UACC-257) | GI50 (Hs-578T) | GI50 (MDA-MB-231) | GI50 (MCF7)
1 | COc1c2c(cc3c1C(=O)Cc1ccc4c(c1CN(C)CC3)OCO4)OCO2 | > 100 µM (inactive) | 79.3 µM (inactive) | > 100 | 30.1 µM (inactive) | 5.71 µM (inactive) | 29.4 µM (inactive) | > 100 µM (inactive) | 36.7 µM (inactive) | > 100 µM (inactive) | 67.3 µM (inactive) | > 100 µM (inactive) | > 100 µM (inactive) | > 100 µM (inactive) | 26.4 µM (inactive) | 43.2 µM (inactive) | 86.9 µM (inactive) | > 100 µM (inactive) | – | – | –
2 | COc1ccc2c(C(=O)O)cc3ccccc3c2c1OC | 16.3 µM (inactive) | – | – | 27.1 µM (inactive) | 21.9 µM (inactive) | 21.6 µM (inactive) | 18.3 µM (inactive) | 32.9 µM (inactive) | 21.9 µM (inactive) | – | 23.7 µM (inactive) | 38.5 µM (inactive) | 20.9 µM (inactive) | 28.4 µM (inactive) | 30.5 µM (inactive) | 40.9 µM (inactive) | 17.1 µM (inactive) | – | – | –
3 | Fc1cc(-c2cc(-c3ccccc3)n[nH]2)c(Cl)cc1Cl | 6.35 µM (inactive) | > 100 µM (inactive) | > 100 | 28.9 µM (inactive) | > 100 µM (inactive) | > 100 µM (inactive) | > 100 µM (inactive) | 16.9 µM (inactive) | > 100 µM (inactive) | > 100 µM (inactive) | 23 µM (inactive) | > 100 µM (inactive) | > 100 µM (inactive) | > 100 µM (inactive) | > 100 µM (inactive) | 51.5 µM (inactive) | > 100 µM (inactive) | > 100 µM (inactive) | 55.5 µM (inactive) | –
4 | CN/N=C(\C)CC(=O)Nc1cccc(Cl)c1C | > 100 µM (inactive) | > 100 µM (inactive) | > 100 | > 100 µM (inactive) | > 100 µM (inactive) | > 100 µM (inactive) | > 100 µM (inactive) | > 100 µM (inactive) | > 100 µM (inactive) | > 100 µM (inactive) | > 100 µM (inactive) | > 100 µM (inactive) | > 100 µM (inactive) | > 100 µM (inactive) | 28.6 µM (inactive) | > 100 µM (inactive) | > 100 µM (inactive) | – | – | –
5 | O=C(O)c1cc2sc(C(=O)O)cc2s1 | – | > 100 µM (inactive) | > 100 | > 100 µM (inactive) | > 100 µM (inactive) | > 100 µM (inactive) | > 100 µM (inactive) | > 100 µM (inactive) | > 100 µM (inactive) | > 100 µM (inactive) | > 100 µM (inactive) | > 100 µM (inactive) | > 100 µM (inactive) | > 100 µM (inactive) | > 100 µM (inactive) | > 100 µM (inactive) | > 100 µM (inactive) | – | – | –
6 | O=c1oc2ccccc2n1P(=O)(n1c(=O)oc2ccccc21)n1c(=O)oc2ccccc21 | > 100 µM (inactive) | > 100 µM (inactive) | – | > 100 µM (inactive) | > 100 µM (inactive) | > 100 µM (inactive) | > 100 µM (inactive) | > 100 µM (inactive) | > 100 µM (inactive) | > 100 µM (inactive) | > 100 µM (inactive) | > 100 µM (inactive) | > 100 µM (inactive) | 90.2 µM (inactive) | > 100 µM (inactive) | > 100 µM (inactive) | > 100 µM (inactive) | – | – | –
7 | CC[C@](C)(O)C(=O)O[C@H]1C(=O)O[C@@H]2C[C@H]3C(C)=C[C@H](O)[C@@H](O)[C@]3(C)[C@H]3[C@@]4(O)OC[C@]32[C@@H]1[C@@H](C)[C@H]4O | – | 27.5 µM (inactive) | 58.2 | 7.85 µM (inactive) | 4.28 µM (inactive) | 29.9 µM (inactive) | 21.6 µM (inactive) | 6.93 µM (inactive) | 8.93 µM (inactive) | 9.73 µM (inactive) | 12.5 µM (inactive) | 71.9 µM (inactive) | 73.5 µM (inactive) | 24.2 µM (inactive) | – | 12 µM (inactive) | 47.8 µM (inactive) | – | – | 11.6 µM (inactive)
8 | C[C@@H](NC(=O)OC1C=CC2(CC1)C(=O)N(C)c1ccccc12)c1cccc2ccccc12 (stereo not given in full) | > 25 µM (inactive) | > 25 µM (inactive) | 14.9 | 0.944 µM (active) | > 25 µM (inactive) | > 25 µM (inactive) | 11.6 µM (inactive) | 5.93 µM (inactive) | – | 18.2 µM (inactive) | – | > 25 µM (inactive) | > 25 µM (inactive) | 21.5 µM (inactive) | 10.2 µM (inactive) | > 25 µM (inactive) | 12.2 µM (inactive) | – | > 25 µM (inactive) | 7.59 µM (inactive)
9 | Cc1cc(N)c2cc(NC(=O)CCCCCCCCC(=O)Nc3ccc4nc(C)cc(N)c4c3)ccc2n1 | 69.5 µM (inactive) | > 100 µM (inactive) | > 100 | 1.54 µM (inactive) | 33.7 µM (inactive) | 32.9 µM (inactive) | 5.57 µM (inactive) | 5.07 µM (inactive) | 25.4 µM (inactive) | 2.47 µM (inactive) | 16.8 µM (inactive) | > 68.4 µM (inactive) | 3.87 µM (inactive) | 32.9 µM (inactive) | 11.7 µM (inactive) | 18.4 µM (inactive) | > 50.4 µM (inactive) | – | – | –
10 | O=C(CC12C3C4C1C1C2C3C41CC(=O)NO)NO (stereo not given) | > 100 µM (inactive) | 71.8 µM (inactive) | 44.2 | 36.9 µM (inactive) | 39.3 µM (inactive) | 29.4 µM (inactive) | 38.8 µM (inactive) | 45.8 µM (inactive) | 31 µM (inactive) | 23.4 µM (inactive) | 46.3 µM (inactive) | – | 41.2 µM (inactive) | 29.6 µM (inactive) | 49.3 µM (inactive) | 35.7 µM (inactive) | 21.8 µM (inactive) | – | – | –
11 | Cc1cc2nc3c(C#N)c(-c4ccccc4)cc(Nc4ccc(Cl)cc4)n3c2cc1C | > 100 µM (inactive) | > 100 µM (inactive) | > 100 | – | – | – | 59.4 µM (inactive) | – | > 100 µM (inactive) | 28.5 µM (inactive) | > 100 µM (inactive) | > 100 µM (inactive) | > 100 µM (inactive) | > 100 µM (inactive) | – | 15.9 µM (inactive) | > 100 µM (inactive) | – | > 100 µM (inactive) | > 100 µM (inactive)
12 | CCC(C)CCOC(=O)c1ccc(/N=C\c2ccc(/C=N/c3ccc(C(=O)OCCC(C)CC)cc3)cc2)cc1 (stereo not given) | > 100 µM (inactive) | > 100 µM (inactive) | > 100 | > 100 µM (inactive) | > 100 µM (inactive) | > 100 µM (inactive) | – | > 100 µM (inactive) | > 100 µM (inactive) | > 100 µM (inactive) | > 100 µM (inactive) | > 100 µM (inactive) | > 100 µM (inactive) | > 100 µM (inactive) | > 100 µM (inactive) | > 100 µM (inactive) | > 100 µM (inactive) | – | – | –
13 | O=C(c1cccs1)N(C(=O)N1CCC(c2ccccc2)CC1)c1ccccc1 | 63.1 µM (inactive) | > 100 µM (inactive) | 28.1 | 28.8 µM (inactive) | – | 25.4 µM (inactive) | 14.4 µM (inactive) | 34.8 µM (inactive) | 15.8 µM (inactive) | 43.7 µM (inactive) | > 100 µM (inactive) | 88.3 µM (inactive) | 62.2 µM (inactive) | – | – | 46 µM (inactive) | 40 µM (inactive) | 27.5 µM (inactive) | > 100 µM (inactive) | 35.5 µM (inactive)
14 | Nc1ccc2c(c1)C1Oc3ccccc3CC1CO2 (stereo not given) | – | > 100 µM (inactive) | 15.7 | > 100 µM (inactive) | > 100 µM (inactive) | > 100 µM (inactive) | > 100 µM (inactive) | > 100 µM (inactive) | > 100 µM (inactive) | – | > 100 µM (inactive) | > 100 µM (inactive) | > 100 µM (inactive) | – | > 100 µM (inactive) | > 100 µM (inactive) | > 100 µM (inactive) | – | > 100 µM (inactive) | > 100 µM (inactive)
15 | COc1cc(Br)c(CC2C3=C(CCN2C(=O)C2CCC2)CC(=O)CC3)cc1O (stereo not given) | 27.5 µM (inactive) | – | 18.7 | 5.9 µM (inactive) | 20.4 µM (inactive) | 24.9 µM (inactive) | 27.2 µM (inactive) | 26.1 µM (inactive) | 28.3 µM (inactive) | 45.3 µM (inactive) | 46.2 µM (inactive) | 56.9 µM (inactive) | 51.3 µM (inactive) | 26.8 µM (inactive) | 38.4 µM (inactive) | 42.7 µM (inactive) | 27.9 µM (inactive) | 26.1 µM (inactive) | 26.5 µM (inactive) | –
16 | C=CC1=CC(C)C[C@]1(O)C(=O)OC (stereo not given in full) | < 0.01 µM (active) | < 0.01 µM (active) | > 100 | < 0.01 µM (active) | < 0.01 µM (active) | < 0.01 µM (active) | < 0.01 µM (active) | < 0.01 µM (active) | < 0.01 µM (active) | < 0.01 µM (active) | > 100 µM (inactive) | > 100 µM (inactive) | < 0.01 µM (active) | < 0.01 µM (active) | 2.75 µM (inactive) | < 0.01 µM (active) | < 0.01 µM (active) | – | – | –
17 | O=C(CCN(CCO)CCO)Nc1ccc2c(c1)C(=O)c1ccc(NC(=O)CCN(CCO)CCO)cc1C2=O | 9.29 µM (inactive) | 5.56 µM (inactive) | 6.47 | 9.59 µM (inactive) | 26.7 µM (inactive) | 28.1 µM (inactive) | 14.4 µM (inactive) | 13.8 µM (inactive) | 12.8 µM (inactive) | 10.8 µM (inactive) | 4.81 µM (inactive) | 14.9 µM (inactive) | 12.8 µM (inactive) | 30.8 µM (inactive) | 14.8 µM (inactive) | 22.3 µM (inactive) | 24.1 µM (inactive) | – | – | –
